Results: paper PMC7449217, “The FDA-Approved Drug Nelfinavir Inhibits Lytic Cell-Free but Not Cell-Associated Nonlytic Transmission of Human Adenovirus” (Antimicrobial Agents and Chemotherapy, 2020)
Where a name gives a salt, the structure may show the parent alone.

What was measured:
Assay in all cases: fluorescence-based plaque-forming assay, A549 cells
Assay type in all cases: cell-based, human adenovirus
dl712 (HAdV-C5/2-dADP) = system: dl712 (HAdV-C5/2-dADP)
Method: (§1) Per 96-well plate, 15,000 A549 cells, 10,000 HeLa cells, 30,000 HBECs, 30,000 HCE cells, or 30,000 CMT-93 cells were seeded in 100 μl of the respective supplemented medium and allowed to settle for 1 h at room temperature (RT) prior to cell culture incubation at 37°C with 5% CO2 and 95% humidity. The following day, the medium was replaced with 50 μl of the respective virus stock dilution giving rise to 5 to 50 plaques per 96-well plate. Fifty microliters of nelfinavir to obtain a 0.1 to 50 μM final concentration or the DMSO solvent control was also added, both in supplemented medium. For each experiment, a noninfected, treated control was performed. For uphill plaque assays, the medium volume was increased to 150 μl with identical virus and drug concentrations. For wash-in/washout experiments, the virus was incubated on cells in supplemented medium for 1 h at 37°C, cells were washed with PBS, and a 100-μl drug dilution in supplemented medium was added. All experiments were performed in four technical replicates or as indicated. Cells were incubated under standard cell culture conditions. At the indicated times postinfection, the cells were fixed, and the nuclei were stained for 1 h at RT by the addition of 33 μl 16% (wt/vol) paraformaldehyde (PFA) and 4 μg/ml Hoechst 33342 (Sigma-Aldrich, St. Louis, MO, USA) in PBS. Cells were washed three times with PBS and stored in PBS supplemented with 0.02% N3 for infections with viruses harboring a GFP transgene. For wild-type (wt) viruses, cells were quenched in PBS supplemented with 50 mM NH4Cl, permeabilized using 0.2% (vol/vol) Triton X-100 in PBS, and blocked with 0.5% (wt/vol) bovine serum albumin (BSA) in PBS. Cells were incubated with 381.7 ng/ml mouse anti-HAdV hexon protein antibody (Mab8052; Sigma-Aldrich, St. Louis, MO, USA) and subsequently stained using 2 μg/ml goat anti-mouse-Alexa Fluor 594 (catalog number A21203 or A32742; Thermo Fisher Scientific, Waltham, MA, USA). Plates were imaged on either an IXM-XL or an IXM-C automated high-throughput fluorescence microscope (Molecular Devices, San Jose, CA, USA) using a 4× objective in wide-field mode. Hoechst staining was recorded in the 4′,6-diamidino-2-phenylindole (DAPI) channel, the fluorescein isothiocyanate (FITC)/GFP channel was acquired for viral GFP, and the tetramethyl rhodamine isothiocyanate (TRITC)/Texas Red channel was acquired for hexon immunofluorescence staining.
(§2) The infection phenotype for each well was quantified using Plaque2.0 ([101]). The number of plaques was determined based on the infection signal (viral GFP or hexon immunofluorescence staining). Nuclei stained with Hoechst were segmented by using CellProfiler ([178]). Infected nuclei were classified based on the median infection signal per nucleus in CellProfiler. Data were plotted, and the EC50 (infected and treated cells), the TC50 (noninfected, treated cells), as well as the corresponding standard errors (SE) were determined using curve fitting in GraphPad (version 8.1.2; GraphPad Software, Inc.) using three-parameter inhibitor concentration-versus-response nonlinear regression. The mean TI50 was calculated as the […] ratio of the means. The TI50 SE was calculated by error propagation.

HAdV-C1 = system: HAdV-C1
Method: as §1, §2

HAdV-B7 = details: for TI50 (TC50/IC50): HAdV-B7 in A549, 4 dpi, Hexon
Method: as §1, §2

HAdV-B14 = system: HAdV-B14
Method: as §1, §2

HAdV-B35-pIX-FS2A-GFP = system: HAdV-B35-pIX-FS2A-GFP
Method: as §1, §2

HAdV-B16 = system: HAdV-B16
Method: as §1, §2

HAdV-C5 = system: HAdV-C5
Method: as §1, §2

HAdV-C2 = system: HAdV-C2
Method: as §1, §2

rec700 (HAdV-C5/2) = system: rec700 (HAdV-C5/2)
Method: as §1, §2

HAdV-B14a = system: HAdV-B14a
Method: as §1, §2

HAdV-B3-pIX-FS2A-GFP = system: HAdV-B3-pIX-FS2A-GFP
Method: as §1, §2

HAdV-D30 = system: HAdV-D30
Method: as §1, §2

HAdV-C2-dE3B-GFP-dADP = details: for EC50: Human adenovirus sp., plaque numbers
Method: as §1, §2

HAdV-A31 = system: HAdV-A31
Method: as §1, §2

HAdV-D37 = system: HAdV-D37
Method: as §1, §2

HAdV-C6 = system: HAdV-C6
Method: as §1, §2

Cc1c(O)cccc1C(=O)N[C@@H](CSc1ccccc1)[C@H](O)CN1C[C@H]2CCCC[C@H]2C[C@H]1C(=O)NC(C)(C)C [Nelfinavir, Nelfinavir mesylate]
EC50 (dl712 (HAdV-C5/2-dADP); Human adenovirus sp., A549): 6.87 µM | TI50 (TC50/IC50) (dl712 (HAdV-C5/2-dADP); dl712 (HAdV-C5/2-dADP) in A549, 5 dpi, Hexon): 2.18 | TI50 (TC50/IC50) (HAdV-C1; HAdV-C1 in A549, 4 dpi, Hexon): 12.22 | EC50 (HAdV-C1; Human adenovirus sp., HAdV-C1 in A549, fixation 4 dpi, read-out Hexon, plaque numbers): 1.94 µM | TI50 (TC50/IC50) (HAdV-B7): 0.75 | TI50 (TC50/IC50) (HAdV-B7; listed as nelfinavir): < 1 | EC50 (HAdV-B7; Human adenovirus sp., HAdV-B7 in A549, fixation 4 dpi, read-out Hexon, plaque numbers): 16.9 µM | TI50 (TC50/IC50) (HAdV-B14; HAdV-B14 in A549, 3 dpi, Hexon): 14.22 | EC50 (HAdV-B14; Human adenovirus sp., HAdV-B14 in A549, fixation 3 dpi, read-out Hexon, plaque numbers): 0.84 µM | TI50 (TC50/IC50) (HAdV-B35-pIX-FS2A-GFP; HAdV-B35-pIX-FS2A-GFP in A549, 4 dpi, Hexon): 6.13 | EC50 (HAdV-B35-pIX-FS2A-GFP; Human adenovirus sp., A549): 2.49 µM | TI50 (TC50/IC50) (HAdV-B16; HAdV-B16 in A549, 4 dpi, Hexon): 1.66 | EC50 (HAdV-B16; Human adenovirus sp., HAdV-B16 in A549, fixation 4 dpi, read-out Hexon, plaque numbers): 12.3 µM | TI50 (TC50/IC50) (HAdV-C5; HAdV-C5 in A549, 3 dpi, VI): 21.01 | EC50 (HAdV-C5; Human adenovirus sp., HAdV-C5 in A549, fixation 3 dpi, read-out VI, plaque numbers): 0.57 µM | TI50 (TC50/IC50) (HAdV-C2; HAdV-C2 in A549, 4 dpi, Hexon): 71.09 | EC50 (HAdV-C2; Human adenovirus sp., HAdV-C2 in A549, fixation 4 dpi, read-out Hexon, plaque numbers): 0.24 µM | EC50 (rec700 (HAdV-C5/2); Human adenovirus sp., A549): 0.07 µM | TI50 (TC50/IC50) (rec700 (HAdV-C5/2); rec700 (HAdV-C5/2) in A549, 4 dpi, Hexon): 177.41 | TI50 (TC50/IC50) (HAdV-B14a; HAdV-B14a in A549, 3 dpi, Hexon): 38.22 | EC50 (HAdV-B14a; Human adenovirus sp., HAdV-B14a in A549, fixation 3 dpi, read-out Hexon, plaque numbers): 0.4 µM | TI50 (TC50/IC50) (HAdV-B3-pIX-FS2A-GFP; HAdV-B3-pIX-FS2A-GFP in A549, 3 dpi, Hexon): 1.50 | EC50 (HAdV-B3-pIX-FS2A-GFP; Human adenovirus sp., A549): 10.2 µM | TI50 (TC50/IC50) (HAdV-D30; HAdV-D30 in A549, 5 dpi, Hexon): 3.18 | EC50 (HAdV-D30; Human adenovirus sp., HAdV-D30 in A549, fixation 5 dpi, read-out Hexon, plaque numbers): 4.2 µM | TI50 (TC50/IC50) (HAdV-C2-dE3B-GFP-dADP; HAdV-C2-dE3B-GFP-dADP in A549, 4 dpi, GFP): 2.11 | TI50 (TC50/IC50) (HAdV-C2-dE3B-GFP-dADP; HAdV-C2-dE3B-GFP-dADP in A549, 4 dpi, GFP, listed as nelfinavir): 2.1 | TI50 (TC50/IC50) (HAdV-C2-dE3B-GFP-dADP; HAdV-C2-dE3B-GFP-dADP in A549, 5 dpi, GFP): 6.73 | TI50 (TC50/IC50) (HAdV-C2-dE3B-GFP-dADP; HAdV-C2-dE3B-GFP-dADP in A549, 5 dpi, Hexon): 5.20 | EC50 (HAdV-C2-dE3B-GFP-dADP; A549, HAdV-C2-dE3B-GFP-dADP in A549, fixation 4 dpi (96 hpi), read-out GFP): 5.82 µM | EC50 (HAdV-C2-dE3B-GFP-dADP; A549, HAdV-C2-dE3B-GFP-dADP in A549, fixation 5 dpi, read-out GFP): 2.23 µM | EC50 (HAdV-C2-dE3B-GFP-dADP; A549, HAdV-C2-dE3B-GFP-dADP in A549, fixation 5 dpi, read-out Hexon): 2.88 µM | TI50 (TC50/IC50) (HAdV-A31; HAdV-A31 in A549, 6 dpi, Hexon): 1.35 | EC50 (HAdV-A31; Human adenovirus sp., HAdV-A31 in A549, fixation 6 dpi, read-out Hexon, plaque numbers): 14.1 µM | TI50 (TC50/IC50) (HAdV-D37; HAdV-D37 in A549, 5 dpi, Hexon): 1.29 | EC50 (HAdV-D37; Human adenovirus sp., HAdV-D37 in A549, fixation 5 dpi, read-out Hexon, plaque numbers): 16.7 µM | TI50 (TC50/IC50) (HAdV-C6; HAdV-C6 in A549, 3 dpi, Hexon): 35.14 | EC50 (HAdV-C6; Human adenovirus sp., HAdV-C6 in A549, fixation 3 dpi, read-out Hexon, plaque numbers): 0.6 µM
